Results published in ChEMBL document CHEMBL2440076, “New triarylpyrazoles as broad-spectrum anticancer agents: design, synthesis, and biological evaluation” (Eur J Med Chem, 2013).

Assays:
BT-549 [1] = test: Growth inhibition of human BT549 cells after 48 hrs by sulforhodamine B assay; assay type: functional; conditions: BT-549, 48 h
SK-MEL-28 [2] = test: Growth inhibition of human SK-MEL-28 cells assessed as cell growth at 10 uM after 48 hrs by sulforhodamine B assay; assay type: functional; conditions: SK-MEL-28, 48 h, read-out: Activity
SW-620 [3] = test: Growth inhibition of human SW620 cells assessed as cell growth at 10 uM after 48 hrs by sulforhodamine B assay; assay type: functional; conditions: SW-620, 48 h, read-out: Activity
NCI-H322M = test: Growth inhibition of human NCI-H322M cells assessed as cell growth at 10 uM after 48 hrs by sulforhodamine B assay; assay type: functional; conditions: read-out: Activity
RXF 393 = test: Growth inhibition of human RXF393 cells after 48 hrs by sulforhodamine B assay; assay type: functional; conditions: RXF 393, 48 h
ACHN [4] = test: Growth inhibition of human ACHN cells after 48 hrs by sulforhodamine B assay; assay type: functional
SW-620 [5] = test: Growth inhibition of human SW620 cells after 48 hrs by sulforhodamine B assay; assay type: functional; conditions: SW-620, 48 h
SK-MEL-28 [6] = test: Growth inhibition of human SK-MEL-28 cells after 48 hrs by sulforhodamine B assay; assay type: functional; conditions: SK-MEL-28, 48 h
BT-549 [7] = test: Growth inhibition of human BT549 cells assessed as cell growth at 10 uM after 48 hrs by sulforhodamine B assay; assay type: functional; conditions: BT-549, 48 h, read-out: Activity
NCI-H226 = test: Growth inhibition of human NCI-H226 cells assessed as cell growth at 10 uM after 48 hrs by sulforhodamine B assay; assay type: functional; conditions: NCI-H226, 48 h, read-out: Activity
MOLT-4 = test: Growth inhibition of human MOLT4 cells assessed as cell growth at 10 uM after 48 hrs by sulforhodamine B assay; assay type: functional; conditions: MOLT-4, 48 h, read-out: Activity
MDA-MB-435 = test: Growth inhibition of human MDA-MB-435 cells assessed as cell growth at 10 uM after 48 hrs by sulforhodamine B assay; assay type: functional; conditions: MDA-MB-435, 48 h, read-out: Activity
CAKI-1 = test: Growth inhibition of human CAKI-1 cells assessed as cell growth at 10 uM after 48 hrs by sulforhodamine B assay; assay type: functional; conditions: CAKI-1, 48 h, read-out: Activity
SN12C = test: Growth inhibition of human SN12C cells assessed as cell growth at 10 uM after 48 hrs by sulforhodamine B assay; assay type: functional; conditions: read-out: Activity
[8] = Growth inhibition of human HCC2998 cells after 48 hrs by sulforhodamine B assay; assay type: functional; conditions: HCC 2998, 48 h
NCI-H522 = test: Growth inhibition of human NCI-H522 cells after 48 hrs by sulforhodamine B assay; assay type: functional; conditions: NCI-H522, 48 h
UACC-62 [9] = test: Growth inhibition of human UACC62 cells after 48 hrs by sulforhodamine B assay; assay type: functional; conditions: UACC-62, 48 h
A498 [10] = test: Growth inhibition of human A498 cells after 48 hrs by sulforhodamine B assay; assay type: functional, cell-based; conditions: A498, 48 h
ACHN [11] = test: Growth inhibition of human ACHN cells assessed as cell growth at 10 uM after 48 hrs by sulforhodamine B assay; assay type: functional; conditions: read-out: Activity
MCF7 = test: Growth inhibition of human MCF7 cells assessed as cell growth at 10 uM after 48 hrs by sulforhodamine B assay; assay type: functional; conditions: MCF7, 48 h, read-out: Activity
KM12 = test: Growth inhibition of human KM12 cells assessed as cell growth at 10 uM after 48 hrs by sulforhodamine B assay; assay type: functional; conditions: KM12, 48 h, read-out: Activity
COLO 205 = test: Growth inhibition of human COLO205 cells after 48 hrs by sulforhodamine B assay; assay type: functional; conditions: COLO 205, 48 h
HCT-116 = test: Growth inhibition of human HCT116 cells after 48 hrs by sulforhodamine B assay; assay type: functional; conditions: HCT-116, 48 h
A498 [12] = test: Growth inhibition of human A498 cells assessed as cell growth at 10 uM after 48 hrs by sulforhodamine B assay; assay type: functional; conditions: A498, 48 h, read-out: Activity
SF-539 [13] = test: Growth inhibition of human SF539 cells assessed as cell growth at 10 uM after 48 hrs by sulforhodamine B assay; assay type: functional; conditions: SF-539, 48 h, read-out: Activity
RPMI-8226 = test: Growth inhibition of human RPMI8226 cells assessed as cell growth at 10 uM after 48 hrs by sulforhodamine B assay; assay type: functional; conditions: RPMI-8226, 48 h, read-out: Activity
786-0 = test: Growth inhibition of human 786-0 cells assessed as cell growth at 10 uM after 48 hrs by sulforhodamine B assay; assay type: functional; conditions: 786-0, 48 h, read-out: Activity
SF-295 = test: Growth inhibition of human SF295 cells after 48 hrs by sulforhodamine B assay; assay type: functional, cell-based; conditions: SF-295, 48 h
SF-539 [14] = test: Growth inhibition of human SF539 cells after 48 hrs by sulforhodamine B assay; assay type: functional; conditions: SF-539, 48 h
UACC-62 [15] = test: Growth inhibition of human UACC62 cells assessed as cell growth at 10 uM after 48 hrs by sulforhodamine B assay; assay type: functional; conditions: UACC-62, 48 h, read-out: Activity
DU-145 = test: Growth inhibition of human DU145 cells assessed as cell growth at 10 uM after 48 hrs by sulforhodamine B assay; assay type: functional; conditions: DU-145, 48 h, read-out: Activity
IGROV-1 = test: Growth inhibition of human IGROV1 cells after 48 hrs by sulforhodamine B assay; assay type: functional; conditions: IGROV-1, 48 h
UACC-257 [16] = test: Growth inhibition of human UACC257 cells assessed as cell growth at 10 uM after 48 hrs by sulforhodamine B assay; assay type: functional; conditions: UACC-257, 48 h, read-out: Activity
UACC-257 [17] = test: Growth inhibition of human UACC257 cells after 48 hrs by sulforhodamine B assay; assay type: functional; conditions: UACC-257, 48 h
[18] = read-out: LC50 (the source's name)

COc1cc(-c2nn(-c3cccc(NC(=O)Nc4cc(C(F)(F)F)cc(C(F)(F)F)c4)c3)cc2-c2ccncc2)ccc1Cl
GI50 (BT-549 [1]): 1210 nM
LC50 (50% lethal concentration) (BT-549 [1]): 29600 nM
TGI (BT-549 [1]): 3060 nM
growth at 10 µM (SK-MEL-28 [2]): -28.9%
growth at 10 µM (SW-620 [3]): -2.89%
growth at 10 µM (NCI-H322M): 26.1%
GI50 (RXF 393): 869 nM
LC50 (concentration killing 50% of cells) (RXF 393): 4900 nM
TGI (RXF 393): 2060 nM
GI50 (ACHN [4]): 491 nM
TGI (ACHN [4]): 5720 nM
CC50 (ACHN [4]; [18]): > 50000 nM
GI50 (SW-620 [5]): 715 nM
TGI (SW-620 [5]): 1860 nM
CC50 (SW-620 [5]; [18]): 4870 nM
GI50 (SK-MEL-28 [6]): 851 nM
LC50 (SK-MEL-28 [6]): 3380 nM
TGI (SK-MEL-28 [6]): 1700 nM
growth at 10 µM (BT-549 [7]): -8.96%
growth at 10 µM (NCI-H226): 8.68%
growth at 10 µM (MOLT-4): -24.5%
growth at 10 µM (MDA-MB-435): -58.3%
growth at 10 µM (CAKI-1): 18.5%
growth at 10 µM (SN12C): -8.08%
GI50 [8]: 931 nM
TGI [8]: 1870 nM
CC50 [8, 18]: 3760 nM
GI50 (NCI-H522): 623 nM
LC50 (concentration killing 50% of cells) (NCI-H522): 6560 nM
TGI (NCI-H522): 1800 nM
GI50 (UACC-62 [9]): 661 nM
LC50 (50% lethal concentration) (UACC-62 [9]): 3780 nM
TGI (UACC-62 [9]): 1580 nM
GI50 (A498 [10]): 612 nM
IC50 (A498 [10]): 610 nM
TGI (A498 [10]): 1900 nM
CC50 (A498 [10]; [18]): 7140 nM
growth at 10 µM (ACHN [11]): 10.6%
growth at 10 µM (MCF7): 1.74%
growth at 10 µM (KM12): -14.8%
GI50 (COLO 205): 847 nM
LC50 (concentration killing 50% of cells) (COLO 205): 2910 nM
TGI (COLO 205): 1570 nM
GI50 (HCT-116): 643 nM
TGI (HCT-116): 1760 nM
CC50 (HCT-116; [18]): 4830 nM
growth at 10 µM (A498 [12]): -14.6%
growth at 10 µM (SF-539 [13]): -53.5%
growth at 10 µM (RPMI-8226): -11.7%
growth at 10 µM (786-0): -71.1%
GI50 (SF-295): 399 nM
IC50 (SF-295): 400 nM
TGI (SF-295): 1230 nM
CC50 (SF-295; [18]): 3310 nM
GI50 (SF-539 [14]): 829 nM
LC50 (concentration killing 50% of cells) (SF-539 [14]): 3540 nM
TGI (SF-539 [14]): 1710 nM
growth at 10 µM (UACC-62 [15]): -55.9%
growth at 10 µM (DU-145): 3.89%
GI50 (IGROV-1): 826 nM
LC50 (concentration killing 50% of cells) (IGROV-1): 23700 nM
TGI (IGROV-1): 2190 nM
growth at 10 µM (UACC-257 [16]): -45.1%
GI50 (UACC-257 [17]): 916 nM
TGI (UACC-257 [17]): 2350 nM
CC50 (UACC-257 [17]; [18]): 26200 nM
